Measured values as given in patent US9884048B2, “ERK inhibitors” (Merck Sharp & Dohme Corp., priority 2014, dated 2018).

Target: phosphorylated active hERK2 enzyme (Homo sapiens (Human), UniProt P28482)
Conditions: read-out: ERK2 IC50; IMAP-FP assay; 0.5 nM hERK2, 30 μM ATP; 10 point titration, 3 μM starting concentration
Procedure: Active Human ERK2 (hERK2) Activity Assay:
Activated ERK2 activity was determined in an IMAP-FP assay (Molecular Devices). […] The final reaction in each well of 25 μL consists of 0.5 nM hERK2, 900 nM unlabeled peptide, 80 nM labeled-peptide, and 30 μM ATP. Phosphorylation reactions were allowed to proceed for 60 minutes and were immediately quenched by the addition of 60 μL IMAP detection beads (1:1000 dilutions) in IMAP binding buffer (Molecular Devices) with 24 mM NaCl. Plates were read on EnVision reader after 60 minutes binding equilibration using Fluorescence Polarization protocol (Perkin Elmer).

Chain of phosphorylated active hERK2 enzyme (P28482 whole entry): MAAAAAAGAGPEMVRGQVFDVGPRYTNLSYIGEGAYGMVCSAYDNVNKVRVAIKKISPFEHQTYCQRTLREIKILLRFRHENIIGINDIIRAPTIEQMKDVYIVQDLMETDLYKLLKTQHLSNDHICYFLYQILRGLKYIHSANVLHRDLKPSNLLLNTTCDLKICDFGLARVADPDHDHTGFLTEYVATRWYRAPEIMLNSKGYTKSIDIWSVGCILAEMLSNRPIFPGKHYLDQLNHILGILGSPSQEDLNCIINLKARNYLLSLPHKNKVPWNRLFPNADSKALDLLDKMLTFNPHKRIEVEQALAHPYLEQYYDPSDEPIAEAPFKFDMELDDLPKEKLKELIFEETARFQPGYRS

| Structure (SMILES) | IC50 [nM] |
| --- | --- |
| C[C@@H](NC(=O)Nc1cc2cnn(C3CCCCC3)c2c(CO)n1)c1ccccc1 [Example 313, 1-[1-cyclohexyl-7-(hydroxymethyl)-1H-pyrazolo[3,4-c]pyridin-5-yl]-3-[(1R)-1-phenylethyl]urea] | 49.1 |
| C[C@@H](NC(=O)Nc1cc2cnn(CC(F)(F)F)c2c(CO)n1)c1ccccc1 [Example 314, 1-[7-(hydroxymethyl)-1-(2,2,2-trifluoroethyl)-1H-pyrazolo[3,4-c]pyridin-5-yl]-3-[(1R)-1-phenylethyl]urea] | 175 |
| C[C@@H](NC(=O)Nc1cc2cnn(CC3COC3)c2c(CO)n1)c1ccccc1 [Example 315, 1-[7-(hydroxymethyl)-1-(oxetan-3-ylmethyl)-1H-pyrazolo[3,4-c]pyridin-5-yl]-3-[(1R)-1-phenylethyl]urea] | 143 |
| C[C@@H](NC(=O)Nc1cc2cnn(C3CCOCC3)c2c(CO)n1)c1ccccc1 [Example 316, 1-[7-(hydroxymethyl)-1-(tetra-hydro-2H-pyran-4-yl)-1H-pyra-- zolo[3,4-c]pyridin-5-yl]-3-[(1R)-1-phenylethyl]urea] | 236 |
| CC(C)(O)[C@@H](NC(=O)Nc1cc2cnn(-c3ncc4c(n3)CNCC4)c2cn1)c1ccc(F)cc1 [Example 317, 1-[(1S)-1-(4-fluorophenyl)-2-hydroxy-2-methylpropyl]-3-[1-(5,6,7,8-tetrahydropyrido[3,4-d]pyrimidin-2-yl)-1H-pyrazolo[3,4-c]pyridin-5-yl]urea] | 327 |
| COCCNCc1nc(NC(=O)N[C@H](C)c2ccccc2)cc2cnn(-c3ccc(F)cc3)c12 [Example 318, 1-[1-(4-Fluorophenyl)-7-{[(2-methoxyethyl)amino]methyl}-1H-pyrazolo[3,4-c]pyridin-5-yl]-3-[(1R)-1-phenylethyl]urea] | 141 |
| C[C@@H](NC(=O)Nc1cc2cnn(-c3ccc(F)cc3)c2c(CN)n1)c1ccccc1 [Example 319, 1-[7-(aminomethyl)-1-(4-fluorophenyl)-1H-pyrazolo[3,4-c]pyridin-5-yl]-3-[(1R)-1-phenylethyl]urea] | 516 |
| C[C@@H](NC(=O)Nc1cc2cnn(-c3ccc(F)cc3)c2c(CNCCN(C)C)n1)c1ccccc1 [Example 320, 1-[7-({[2-(dimethylamino)ethyl]amino}methyl)-1-(4-fluorophenyl)-1H-pyrazolo[3,4-c]pyridin-5-yl]-3-[(1R)-1-phenylethyl]urea] | 1240 |
| COCCNCc1nc(NC(=O)N[C@H](C)c2ccccc2)cc2cnn(-c3ccnc(C)c3)c12 [Example 321, 1-[7-{[(2-methoxyethyl)amino]methyl}-1-(2-methylpyridin-4-yl)-1H-pyrazolo[3,4-c]pyridin-5-yl]-3-[(1R)-1-phenylethyl]urea] | 103 |
| Cc1cc(-n2ncc3cc(NC(=O)N[C@H](C)c4ccccc4)nc(CNCCN(C)C)c32)ccn1 [Example 322, 1-[7-({[2-(dimethylamino)ethyl]amino}methyl)-1-(2-methylpyridin-4-yl)-1H-pyrazolo[3,4-c]pyridin-5-yl]-3-[(1R)-1-phenylethyl]urea] | 86.6 |
| C[C@@H](NC(=O)Nc1cc2cnn(CCC#N)c2c(CO)n1)c1ccccc1 [Example 323, 1-[1-(2-Cyanoethyl)-7-(hydroxymethyl)-1H-pyrazolo[3,4-c]pyridin-5-yl]-3-[(R)-1-phenylethyl]urea] | 110 |
| C=CC(=O)NCc1nc(NC(=O)N[C@H](C)c2ccccc2)cc2cnn(C)c12 [Example 324, N-{[1-Methyl-5-({[(1R)-1-phenylethyl]carbamoyl}amino)-1H-pyrazolo[3,4-c]pyridin-7-yl]methyl}prop-2-enamide] | 432 |
| CC(=O)NCc1nc(NC(=O)N[C@H](C)c2ccccc2)cc2cnn(-c3ccc(F)cc3)c12 [Example 325, N-{[1-(4-fluorophenyl)-5-({[(1R)-1-phenylethyl]carbamoyl}amino)-1H-pyrazolo[3,4-c]pyridin-7-yl]methyl}acetamide] | 289 |
| COC(=O)NCc1nc(NC(=O)N[C@H](C)c2ccccc2)cc2cnn(-c3ccc(F)cc3)c12 [Example 326, Methyl {[1-(4-fluorophenyl)-5-({[(1R)-1-phenylethyl]carbamoyl}amino)-1H-pyrazolo[3,4-c]pyridin-7-yl]methyl}carbamate] | 17.6 |
| CCNC(=O)OCc1nc(NC(=O)N[C@H](C)c2ccccc2)cc2cnn(-c3ccc(F)cc3)c12 [Example 327, [1-(4-Fluorophenyl)-5-({[(1R)-1-phenylethyl]carbamoyl}amino)-1H-pyrazolo[3,4-c]pyridin-7-yl]methyl ethylcarbamate] | 116 |
| C=CC(=O)NC[C@@H](NC(=O)Nc1cc2cnn(C)c2cn1)c1ccccc1 [Example 328, N-[(2S)-2-{[(1-Methyl-1H-pyrazolo[3,4-c]pyridin-5-yl)carbamoyl]amino}-2-phenylethyl]prop-2-enamide] | 796 |
| C=CC(=O)NCCc1nc(NC(=O)N[C@H](C)c2ccccc2)cc2cnn(C)c12 [Example 329, N-{2-[1-Methyl-5-({[(1R)-1-phenylethyl]carbamoyl}amino)-1H-pyrazolo[3,4-c]pyridin-7-yl]ethyl}prop-2-enamide] | 563 |
